Common to all, as to assay type: in vitro ADME
The target in one experiment is CYP2C19 (Homo sapiens, UniProt P33261). Put plainly: Biological Test Example 8: CYP2C19 inhibition (diazepam N-demethylation).
In a further experiment the target is CYP3A4 (Homo sapiens, UniProt P08684). Put plainly: Biological Test Example 6: CYP3A4 inhibition (erythromycin N-demethylation).
The target in another experiment is T1, CYP2C9 (Homo sapiens, UniProt P11712).
T1 construct: purchased Invitrogen 2859; host or cells: insect cells infected with baculovirus (microsomes)
T1 sequence (P11712 whole entry): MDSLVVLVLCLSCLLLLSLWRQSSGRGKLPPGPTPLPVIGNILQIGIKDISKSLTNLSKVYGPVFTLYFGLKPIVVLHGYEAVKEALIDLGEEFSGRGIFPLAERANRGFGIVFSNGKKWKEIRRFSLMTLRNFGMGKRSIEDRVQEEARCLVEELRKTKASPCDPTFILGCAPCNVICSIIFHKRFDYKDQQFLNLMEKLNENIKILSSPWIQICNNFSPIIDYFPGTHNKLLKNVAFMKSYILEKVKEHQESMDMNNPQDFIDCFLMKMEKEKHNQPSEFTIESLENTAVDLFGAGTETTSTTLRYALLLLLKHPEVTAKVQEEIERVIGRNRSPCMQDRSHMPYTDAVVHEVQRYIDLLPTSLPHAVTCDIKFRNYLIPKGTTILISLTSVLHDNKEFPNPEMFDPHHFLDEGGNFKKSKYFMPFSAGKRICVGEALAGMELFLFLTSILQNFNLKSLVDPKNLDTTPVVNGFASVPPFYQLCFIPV
Put plainly: Biological Test Example 7: CYP2C9 inhibition (naproxen O-demethylation).

Drawing on patent US8569292B2, “Cyclic inhibitors of 11β-hydroxysteroid dehydrogenase 1” (Vitae Pharmaceuticals, Inc., priority 2008, dated 2013), this text covers IC50 for nine molecules.

One may read the IC50 as the point on the concentration scale where inhibition reaches its midpoint. A higher IC50 goes with a need for much substance.

Sequence of CYP3A4 (P08684 whole entry): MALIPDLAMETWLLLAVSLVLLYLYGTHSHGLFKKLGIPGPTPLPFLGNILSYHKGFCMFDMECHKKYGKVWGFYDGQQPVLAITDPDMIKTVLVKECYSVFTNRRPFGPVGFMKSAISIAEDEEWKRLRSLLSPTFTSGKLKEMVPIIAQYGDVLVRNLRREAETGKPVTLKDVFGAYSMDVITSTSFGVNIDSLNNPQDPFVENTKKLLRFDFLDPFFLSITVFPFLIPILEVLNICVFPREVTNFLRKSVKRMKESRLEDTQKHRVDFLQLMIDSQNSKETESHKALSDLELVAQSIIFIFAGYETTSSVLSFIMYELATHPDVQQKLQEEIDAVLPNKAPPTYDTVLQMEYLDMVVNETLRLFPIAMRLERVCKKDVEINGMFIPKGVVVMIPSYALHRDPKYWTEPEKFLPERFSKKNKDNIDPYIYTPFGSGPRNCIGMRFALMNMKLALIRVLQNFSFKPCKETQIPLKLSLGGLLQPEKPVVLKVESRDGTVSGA
Sequence of CYP2C19 (P33261 whole entry): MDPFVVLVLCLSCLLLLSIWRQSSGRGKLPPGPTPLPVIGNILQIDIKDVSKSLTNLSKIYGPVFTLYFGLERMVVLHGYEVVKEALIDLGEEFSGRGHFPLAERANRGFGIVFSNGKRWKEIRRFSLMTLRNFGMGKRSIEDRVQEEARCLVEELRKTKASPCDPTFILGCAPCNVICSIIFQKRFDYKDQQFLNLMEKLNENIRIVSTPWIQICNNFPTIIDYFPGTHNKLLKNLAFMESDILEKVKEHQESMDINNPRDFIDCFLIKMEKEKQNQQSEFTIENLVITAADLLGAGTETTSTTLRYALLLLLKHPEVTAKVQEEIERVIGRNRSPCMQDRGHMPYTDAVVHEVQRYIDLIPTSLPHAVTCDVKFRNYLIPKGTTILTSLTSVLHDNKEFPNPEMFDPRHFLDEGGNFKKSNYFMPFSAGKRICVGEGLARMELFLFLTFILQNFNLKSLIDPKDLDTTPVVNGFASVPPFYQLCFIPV

In the case of `C[C@@H](c1ccc(-c2cc([S+](C)[O-])ccn2)cc1)N1CC[C@](CC(C)(C)O)(c2ccccc2)OC1=O` (stereo partly drawn) [EXAMPLE 184, (S)-6-(2-Hydroxy-2-methyl-propyl)-3-{(S)-1-[4-(4-methanesulfinyl-pyridin-2-yl)-phenyl]-ethyl}-6-phenyl-[1,3]oxazinan-2-one], the IC50 at CYP2C19, at CYP3A4 and against CYP2C9 was > 50 µM in each case.
With `C[C@@H](c1ccc(-c2ccc([S+](C)[O-])nc2)cc1)N1CC[C@](CC(C)(C)O)(c2ccccc2)OC1=O` (stereo partly drawn) [EXAMPLE 182, (S)-6-(2-Hydroxy-2-methyl-propyl)-3-{(S)-1-[4-(6-methanesulfinyl-pyridin-3-yl)-phenyl]-ethyl}-6-phenyl-[1,3]oxazinan-2-one], the IC50 at CYP2C19, against CYP3A4 and against CYP2C9 was > 50 µM throughout.
As to `Cc1ncc(-c2ccc([C@H](C)N3CC[C@](CC(C)(C)O)(c4ccccc4)OC3=O)cc2)s1` [EXAMPLE 180, (S)-6-(2-Hydroxy-2-methyl-propyl)-3-{(S)-1-[(2-methyl-4-thiazol-5-yl)-phenyl]-ethyl}-6-phenyl-[1,3]oxazinan-2-one], the values for the IC50 on CYP2C19, at CYP3A4 and against CYP2C9 were 14.4 µM, 9.8 µM and 9.2 µM, respectively.
For `C[C@@H](c1ccc(-c2ncc(C(=O)NC3CC3)s2)cc1)N1CC[C@](CC(C)(C)O)(c2ccccc2)OC1=O` [EXAMPLE 20, N-cyclopropyl-2-(4-((S)-1-((S)-6-(2-hydroxy-2-methylpropyl)-2-oxo-6-phenyl-1,3-oxazinan-3-yl)ethyl)phenyl)thiazole-5-carboxamide], the IC50 on CYP2C19 was 47.7 µM; against CYP3A4 it was 49.8 µM; against CYP2C9, 15.4 µM.
For `CCNC(=O)c1ccc(-c2ccc([C@H](C)N3CC[C@](CC(C)(C)O)(c4ccccc4)OC3=O)cc2)cn1` [EXAMPLE 168, 5-(4-{(S)-1-[(S)-6-(2-Hydroxy-2-methyl-propyl)-2-oxo-6-phenyl-[1,3]oxazinan-3-yl]-ethyl}-phenyl)-pyridine-2-carboxylic acid ethylamide], in that order: 7.9 µM, 16.8 µM and 15.1 µM.
Consider `Cc1nc(-c2ccc([C@H](C)N3CC[C@](CC(C)(C)O)(c4ccccc4)OC3=O)cc2)sc1C` [EXAMPLE 181, (S)-3-{1-[4-(4,5-Dimethyl-thiazol-2-yl)-phenyl]-ethyl}-6-(2-hydroxy-2-methyl-propyl)-6-phenyl-[1,3]oxazinan-2-one], for which the IC50 at CYP2C19 was found to be 8.2 µM; against CYP3A4, 7.8 µM; against CYP2C9 it was 5.6 µM.
On to `C[C@@H](c1ccc(-c2ccnc(S(C)(=O)=O)c2)cc1)N1CC[C@](CC(C)(C)O)(c2ccccc2)OC1=O` [EXAMPLE 187, (S)-6-(2-Hydroxy-2-methyl-propyl)-3-{(S)-1-[4-(2-methanesulfonyl-pyridin-4-yl)-phenyl]-ethyl}-6-phenyl-[1,3]oxazinan-2-one], for which the IC50 on CYP2C19 was > 50 µM; on CYP3A4 it was > 50 µM; on CYP2C9, 25.9 µM.
On to `COC[C@]1(c2ccccc2)CCN([C@@H](C)c2ccc(-c3ccc(C)nn3)cc2)C(=O)O1` [EXAMPLE 167, (R)-6-(methoxymethyl)-3-((S)-1-(4-(6-methylpyridazin-3-yl)phenyl)ethyl)-6-phenyl-1,3-oxazinan-2-one], for which the IC50 is 26.1 µM against CYP2C19, 46.7 µM against CYP3A4 and 29.5 µM against CYP2C9.
For `C[C@@H](c1ccc(-c2cccc([S+](C)[O-])n2)cc1)N1CC[C@](CC(C)(C)O)(c2ccccc2)OC1=O` (stereo partly drawn) [EXAMPLE 191, (S)-6-(2-Hydroxy-2-methyl-propyl)-3-{(S)-1-[4-(6-methanesulfinyl-pyridin-2-yl)-phenyl]-ethyl}-6-phenyl-[1,3]oxazinan-2-one], in that order: > 50 µM, 36.4 µM and > 50 µM.
